In patent US4241087A, “Dysmenorrhea treatment” (William H. Rorer, Inc., priority 1979, dated 1980):

Columns and labels:
Type in all cases: cell-based
[1] = test system: Ach induced contractions in the isolated gravid rat uterus; experiment: Ach induced contractions, isolated gravid rat uterus (isometric, non-cumulative dose response); details: for inhibition at 160 µg/mL / inhibition at 40 µg/mL / inhibition at 80 µg/mL: Rattus norvegicus; for inhibition at 40 µg/mL: compound 40 μg/ml; for inhibition at 80 µg/mL: compound 80 μg/ml
Method: (§1) Female virgin Wistar rats at an average weight of 160 g to 220 g are used for the experiment. Prior to the experiment, the animals are housed five per group and maintained according to standard animal husbandry procedures. The animals are treated with DES (100 mg/kg/body weight) 24 hours prior to the experiment.
(§2) The stage of the estrus cycle is determined by vaginal smears on the morning of the experiment. Rats in estrus are killed by a blow on the head and the abdomen is opened. The two horns of the uterus are dissected out and transferred to a dish containing Bathing's solution (composition in g: NaCL, 8.046; KCl, 0.20; CaCl2.2H2 O, 0.132; MgCl2.6H2 O, 0.106; NaHCO3, 1.0; NaH2 PO4, 0.065; Dextrose, 1.0 distilled to 1 liter with distilled water). The two horns are separated and freed from mesentery in Bathing's solution. A thread is attached at each end of each horn and the uterine segment is mounted in a tissue bath (50 ml), maintained at 37° C. by a circulatory bath and aerated with 95% O2 5% CO2. One thread is attached to a fixed pin and the other to a transducer. Contractions are recorded isometrically on a Beckman dynograph in conjunction with a Grass force-displacement transducer (FTO3C) of which has been calibrated in g. tension, or isotonically in conjunction with a Harvard smooth muscle transducer (386). The tissue is subjected to a baseline tension of 0.5 g. The preparation is allowed to equilibrate for 30 minutes prior to the experiment.
(§3) Various spasmogens (such as: acetylcholine chloride, PGF2a, PGE2, oxytocin, BaCl2 or ergonivine maleate) may be used to induce contractions in the isolated uterine strip. See "In Vitro Methodology for Evaluation of Compound Effect on Isolated Guinea Pig Ileum" for description of obtaining dose response curve. Afer the control dose-response curve is obtained, the tissue is allowed to relax for five minutes before the addition of the spasmolytic drug (inhibitory drug). The test drug is in contact with the tissue for two minutes before the dose-response curve is repeated. The inhibitory effect of the test drug is determined as follows: [formula]
(§4) The % maximum response is calculated for each dose of the dose-response curve and the control and drug curves are plotted.
(§5) The dose-response behavior on the isolated gravid rat uterus of Acetylcholine chloride, Oxytocin and PGF2a was compared in the presence and absence of varying doses of 1-(2',6'-dimethylphenyl)-3-methylamidinourea hydrochloride using the non-cumulative dose response method.

[2] = test system: Oxytocin induced contractions in the isolated gravid rat uterus; experiment: Oxytocin induced contractions, isolated gravid rat uterus (isometric, non-cumulative dose response); details: for inhibition at 40 µg/mL / inhibition at 80 µg/mL / inhibition at 160 µg/mL: Rattus norvegicus; for inhibition at 40 µg/mL: compound 40 μg/ml; for inhibition at 80 µg/mL: compound 80 μg/ml; for inhibition at 160 µg/mL: compound 160 μg/ml
Method: as §1, §2, §3, §4, §5

[3] = test system: PGF2α induced contractions in the isolated gravid rat uterus; experiment: PGF2α induced contractions, isolated gravid rat uterus (isometric, non-cumulative dose response); details: for inhibition at 40 µg/mL / inhibition at 80 µg/mL / inhibition at 160 µg/mL: Rattus norvegicus; for inhibition at 40 µg/mL: compound 40 μg/ml; for inhibition at 80 µg/mL: compound 80 μg/ml; for inhibition at 160 µg/mL: compound 160 μg/ml
Method: as §1, §2, §3, §4, §5

[4] = increasing doses of compound, in vitro gravid rat uterus

Structure (SMILES): CNC(=N)NC(=O)Nc1c(C)cccc1C.Cl [1-(2',6'-dimethylphenyl)-3-methylamidinourea hydrochloride]
- inhibition at 160 µg/mL ([1]; ACH-2, compound 160 μg/ml, Ach 2,560 μg/ml): 67.4%
- inhibition at 40 µg/mL ([1]; Ach 20 μg/ml): 100%
- inhibition at 40 µg/mL ([1]; Ach 40 μg/ml): 83%
- inhibition at 40 µg/mL ([1]; Ach 80 μg/ml): 79.7%
- inhibition at 40 µg/mL ([1]; Ach 160 μg/ml): 46.8%
- inhibition at 40 µg/mL ([1]; Ach 320 μg/ml): 2.8%
- inhibition at 40 µg/mL ([1]; Ach 640 μg/ml): < 2.8%
- inhibition at 80 µg/mL ([1]; Ach 20 μg/ml): 100%
- inhibition at 80 µg/mL ([1]; Ach 40 μg/ml): 100%
- inhibition at 80 µg/mL ([1]; Ach 80 μg/ml): 100%
- inhibition at 80 µg/mL ([1]; Ach 160 μg/ml): 95.8%
- inhibition at 80 µg/mL ([1]; Ach 320 μg/ml): 26.8%
- inhibition at 80 µg/mL ([1]; Ach 640 μg/ml): < 26.8%
- inhibition at 160 µg/mL ([1]; compound 160 μg/ml, Ach 20 μg/ml): 100%
- inhibition at 160 µg/mL ([1]; compound 160 μg/ml, Ach 40 μg/ml): 100%
- inhibition at 160 µg/mL ([1]; compound 160 μg/ml, Ach 80 μg/ml): 100%
- inhibition at 160 µg/mL ([1]; compound 160 μg/ml, Ach 160 μg/ml): 100%
- inhibition at 160 µg/mL ([1]; compound 160 μg/ml, Ach 320 μg/ml): 93.3%
- inhibition at 160 µg/mL ([1]; compound 160 μg/ml, Ach 640 μg/ml): 93.6%
- inhibition at 160 µg/mL ([1]; compound 160 μg/ml, Ach 1,280 μg/ml): 84.6%
- inhibition at 160 µg/mL ([1]; compound 160 μg/ml, Ach 5,120 μg/ml): 61.2%
- inhibition at 160 µg/mL ([1]; compound 160 μg/ml, Ach 10,240 μg/ml): 62.7%
- inhibition of Acetylcholine chloride induced contractions (in words) [1, 4]: dose dependent
- inhibition at 40 µg/mL ([2]; Oxytocin 1 × 10^-4 U/ml): < 22.1%
- inhibition at 40 µg/mL ([2]; Oxytocin 1 × 10^-5 U/ml): 100%
- inhibition at 40 µg/mL ([2]; Oxytocin 3 × 10^-5 U/ml): 22.1%
- inhibition at 80 µg/mL ([2]; Oxytocin 1 × 10^-4 U/ml): 14.4%
- inhibition at 80 µg/mL ([2]; Oxytocin 1 × 10^-5 U/ml): 100%
- inhibition at 80 µg/mL ([2]; Oxytocin 3 × 10^-4 U/ml): < 14.4%
- inhibition at 80 µg/mL ([2]; Oxytocin 3 × 10^-5 U/ml): 48.7%
- inhibition at 160 µg/mL ([2]; Oxytocin 1 × 10^-3 U/ml): 47.6%
- inhibition at 160 µg/mL ([2]; Oxytocin 1 × 10^-4 U/ml): 100%
- inhibition at 160 µg/mL ([2]; Oxytocin 1 × 10^-5 U/ml): 100%
- inhibition at 160 µg/mL ([2]; Oxytocin 3 × 10^-3 U/ml): 32.5%
- inhibition at 160 µg/mL ([2]; Oxytocin 3 × 10^-4 U/ml): 63.2%
- inhibition at 160 µg/mL ([2]; Oxytocin 3 × 10^-5 U/ml): 100%
- inhibition of Oxytocin induced contractions (in words) [2, 4]: dose dependent
- inhibition at 40 µg/mL ([3]; PGF2α 1 × 10^-7 M): 39.5%
- inhibition at 40 µg/mL ([3]; PGF2α 1 × 10^-8 M): 99%
- inhibition at 40 µg/mL ([3]; PGF2α 3 × 10^-7 M): < 39.5%
- inhibition at 40 µg/mL ([3]; PGF2α 3 × 10^-8 M): 95.1%
- inhibition at 80 µg/mL ([3]; PGF2α 1 × 10^-6 M): < 48.9%
- inhibition at 80 µg/mL ([3]; PGF2α 1 × 10^-7 M): 64%
- inhibition at 80 µg/mL ([3]; PGF2α 1 × 10^-8 M): 98.2%
- inhibition at 80 µg/mL ([3]; PGF2α 3 × 10^-7 M): 48.9%
- inhibition at 80 µg/mL ([3]; PGF2α 3 × 10^-8 M): 91.3%
- inhibition at 160 µg/mL ([3]; PGF2α 1 × 10^-6 M): 96.1%
- inhibition at 160 µg/mL ([3]; PGF2α 1 × 10^-7 M): 98.5%
- inhibition at 160 µg/mL ([3]; PGF2α 1 × 10^-8 M): 100%
- inhibition at 160 µg/mL ([3]; PGF2α 3 × 10^-6 M): 86.8%
- inhibition at 160 µg/mL ([3]; PGF2α 3 × 10^-7 M): 96.1%
- inhibition at 160 µg/mL ([3]; PGF2α 3 × 10^-8 M): 100%
- inhibition of PGF2a induced contractions (in words) [3, 4]: dose dependent
